According to ChEMBL document CHEMBL1201862, “PubChem BioAssay data set” (2004):
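1) Cells in 96-well plates. 2) Compound, 48 h, 5 concentrations. 3) Linear interpolation between surrounding doses. 4) Unreached endpoint = highest concentration. Here, GI50 denotes the concentration required for 50% inhibition of growth.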 Calls of active or inactive are those of the source. No stated cut-off is given here; in the data, active = GI50 up to about 1.1 µM and inactive = higher.

How the values were obtained:
Experiment in all cases: DTP human tumour cell line panel, 48 h
UO-31 = system: UO-31
SR = system: SR
Malme-3M = system: Malme-3M
MOLT-4 = system: MOLT-4
786-0 = system: 786-0
CAKI-1 = system: CAKI-1
SF-539 = system: SF-539
UACC-62 = system: UACC-62
HCT-15 = system: HCT-15
SW-620 = system: SW-620
TK-10 = system: TK-10
MCF7 = system: MCF7
SNB-75 = system: SNB-75
A498 = system: A498
RXF 393 = system: RXF 393
SNB-19 = system: SNB-19
HCC 2998 = system: HCC 2998
LOX IMVI = system: LOX IMVI
SK-OV-3 = system: SK-OV-3
ACHN = system: ACHN
RPMI-8226 = system: RPMI-8226
OVCAR-4 = system: OVCAR-4
SF-268 = system: SF-268
SF-295 = system: SF-295
KM12 = system: KM12
M14 = system: M14
HT-29 = system: HT-29
OVCAR-3 = system: OVCAR-3
Hs-578T = system: Hs-578T
U-251 = system: U-251
UACC-257 = system: UACC-257
DU-145 = system: DU-145
COLO 205 = system: COLO 205
T47D = system: T47D
HOP-92 = system: HOP-92
EKVX = system: EKVX
IGROV-1 = system: IGROV-1
A549 = system: A549
BT-549 = system: BT-549
HCT-116 = system: HCT-116
MDA-MB-231 = system: MDA-MB-231
PC-3 = system: PC-3
HOP-62 = system: HOP-62
NCI/ADR-RES = system: NCI/ADR-RES
HL-60 = system: HL-60
SK-MEL-2 = system: SK-MEL-2
K562 = system: K562
CCRF-CEM = system: CCRF-CEM
MDA-MB-435 = system: MDA-MB-435
OVCAR-8 = system: OVCAR-8
OVCAR-5 = system: OVCAR-5
SK-MEL-28 = system: SK-MEL-28
NCI-H23 = system: NCI-H23
SK-MEL-5 = system: SK-MEL-5
NCI-H460 = system: NCI-H460
NCI-H226 = system: NCI-H226

SMILES: CCN(CC)C(=O)Cn1c2ccccc2[n+]2cc(N)ccc12
- GI50 (UO-31): > 100 µM (inactive)
- GI50 (SR): > 100 µM (inactive)
- GI50 (Malme-3M): > 100 µM (inactive)
- GI50 (MOLT-4): > 100 µM (inactive)
- GI50 (786-0): > 100 µM (inactive)
- GI50 (CAKI-1): > 100 µM (inactive)
- GI50 (SF-539): > 100 µM (inactive)
- GI50 (UACC-62): > 100 µM (inactive)
- GI50 (HCT-15): > 100 µM
- GI50 (SW-620): > 100 µM (inactive)
- GI50 (TK-10): > 100 µM (inactive)
- GI50 (MCF7): > 100 µM (inactive)
- GI50 (SNB-75): > 100 µM (inactive)
- GI50 (A498): > 100 µM (inactive)
- GI50 (RXF 393): > 100 µM (inactive)
- GI50 (SNB-19): > 100 µM (inactive)
- GI50 (HCC 2998): > 100 µM (inactive)
- GI50 (LOX IMVI): > 100 µM (inactive)
- GI50 (SK-OV-3): > 100 µM (inactive)
- GI50 (ACHN): > 100 µM (inactive)
- GI50 (RPMI-8226): > 100 µM (inactive)
- GI50 (OVCAR-4): > 100 µM (inactive)
- GI50 (SF-268): > 100 µM (inactive)
- GI50 (SF-295): > 100 µM (inactive)
- GI50 (KM12): > 100 µM (inactive)
- GI50 (M14): > 100 µM (inactive)
- GI50 (HT-29): > 100 µM (inactive)
- GI50 (OVCAR-3): > 100 µM (inactive)
- GI50 (Hs-578T): > 100 µM (inactive)
- GI50 (U-251): > 100 µM (inactive)
- GI50 (UACC-257): > 100 µM (inactive)
- GI50 (DU-145): > 100 µM (inactive)
- GI50 (COLO 205): > 100 µM (inactive)
- GI50 (T47D): > 100 µM (inactive)
- GI50 (HOP-92): > 100 µM (inactive)
- GI50 (EKVX): > 100 µM (inactive)
- GI50 (IGROV-1): > 100 µM (inactive)
- GI50 (A549): > 100 µM (inactive)
- GI50 (BT-549): > 100 µM (inactive)
- GI50 (HCT-116): > 100 µM (inactive)
- GI50 (MDA-MB-231): > 100 µM (inactive)
- GI50 (PC-3): > 100 µM (inactive)
- GI50 (HOP-62): > 100 µM (inactive)
- GI50 (NCI/ADR-RES): > 100 µM (inactive)
- GI50 (HL-60): > 100 µM (inactive)
- GI50 (SK-MEL-2): > 100 µM (inactive)
- GI50 (K562): > 100 µM (inactive)
- GI50 (CCRF-CEM): > 100 µM (inactive)
- GI50 (MDA-MB-435): > 100 µM (inactive)
- GI50 (OVCAR-8): > 100 µM (inactive)
- GI50 (OVCAR-5): > 100 µM (inactive)
- GI50 (SK-MEL-28): > 100 µM (inactive)
- GI50 (NCI-H23): > 100 µM (inactive)
- GI50 (SK-MEL-5): > 100 µM (inactive)
- GI50 (NCI-H460): > 100 µM (inactive)
- GI50 (NCI-H226): > 100 µM (inactive)
